Measurements taken from patent US7491827B2, “Aryl sulfonamides useful as inhibitors of chemokine receptor activity” (Millennium Pharmaceuticals, Inc., priority 2003, dated 2009).

target: T1, cloned human CCR8 receptor stably expressed in L1.2 cells (Homo sapiens, UniProt P51685); assay: whole cell binding screen: inhibition of biotinylated human I309 binding to CCR8 (FMAT 8100 HTS); conditions: Ki of compounds to inhibit I-309 binding to CCR8, L1.2/hCCR8 cells, biotinylated human I-309, 10 point concentration response starting at 10 μM
T1 construct: expressed in transfected cells
Excerpt: This whole cell binding screen evaluates the ability of compounds to inhibit biotinlyated human I309 binding to the cloned human CCR8 receptor stably expressed in L1.2 cells. Human CCR8 gene was amplified by PCR using PFU polymerase under standard conditions from human genomic DNA purchased from Stratagene. The PCR primers used were:
The 5′ and 3′ primers contained flanking enzyme sites (Bam Hi and Not 1,respectively), which were used to subclone the gene into pcDNA3.1. […] The CCR8 vector was then transfected into L1.2 cells (murine pre-B cells) by electroporation.
Compounds were screened using the FMAT™ 8100 HTS System (purchased from Applied Biosystems).
A suspension was prepared of L1.2/hCCR8 cells at 4.0×10^5 cells/mL in a binding buffer (Buffer consisting of Hanks Balanced Salt Solution (without phenol red), 10 mM HEPES, 0.1% Fatty Acid Free BSA, 0.02% Sodium Azide).
Dilution series of 10 mM stock concentrations of the test compounds were prepared in DMSO and further diluted into binding buffer defined above) to three times the final assay concentration.
10 point concentration response curve is constructed for each compound, starting at 10 μM (final assay concentration in Binding Buffer). […] The components were mixed in wells by covering the plate with aluminum foil and rotating for 0.5 hours. […] Average fluorescence reported for each concentration was normalized to percent inhibition based on negative (no inhibitor) and positive (100 nM excess unlabeled I309 (R and D Systems)) controls.

T1 sequence (P51685 whole entry): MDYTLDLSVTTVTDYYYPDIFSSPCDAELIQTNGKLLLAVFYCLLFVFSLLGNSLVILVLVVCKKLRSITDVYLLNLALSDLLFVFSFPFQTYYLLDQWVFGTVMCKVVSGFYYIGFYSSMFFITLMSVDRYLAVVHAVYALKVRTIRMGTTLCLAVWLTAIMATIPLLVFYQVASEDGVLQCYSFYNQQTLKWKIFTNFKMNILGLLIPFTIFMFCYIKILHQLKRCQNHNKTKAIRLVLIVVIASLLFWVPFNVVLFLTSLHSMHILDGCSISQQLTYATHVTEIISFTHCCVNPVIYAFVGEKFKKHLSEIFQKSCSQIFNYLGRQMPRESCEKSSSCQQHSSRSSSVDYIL

Q: With `Cc1ccccc1C(=O)Nc1ccc(S(=O)(=O)NC2CCN(C(=O)N3CCCCC3)CC2)c2ccccc12` [Compound C-44, 2-Methyl-N-{4-[1-(piperidine-1-carbonyl)-piperidin-4-ylsulfamoyl]-naphthalen-1-yl}-benzamide] as the compound, how does the Ki read?
A: < 1 µM

Q: With `Cc1ccccc1C(=O)Nc1ccc(S(=O)(=O)NC2CCN(C(=O)N3CCOCC3)CC2)c2ccccc12` [Compound C-33, 2-Methyl-N-{4-[1-(morpholine-4-carbonyl)-piperidin-4-ylsulfamoyl]-naphthalen-1-yl}-benzamide] as the compound, how does the Ki read?
A: < 1 µM

Q: For `CCCC(=O)N1CCC(NS(=O)(=O)c2ccc(NC(=O)C3CCC3)c3ccccc23)CC1` [Compound D-19, Cyclobutanecarboxylic acid [4-(1-butyryl-piperidin-4-ylsulfamoyl)-naphthalen-1-yl]-amide], which Ki is on record?
A: < 0.5 µM

same assay, conditions: L1.2/hCCR8 cells, biotinylated human I-309, 10 point concentration response starting at 10 μM; read-out: Ki of compounds to inhibit I-309 binding to CCR8

Q: How did the Ki turn out when `CCCC(=O)N1CC[C@H](NS(=O)(=O)c2ccc(NC(=O)c3ccccc3C)c3ccccc23)[C@H](CO)C1` (racemic) [Compound C-80, (±)-(cis)-N-[4-(1-Butryl-3-hydroxymethyl-piperidin-4-ylsulfamoyl)-naphthalen-1-yl]-2-methyl-benzamide] was run?
A: < 0.5 µM

Q: For `Cc1ccccc1C(=O)Nc1ccc(S(=O)(=O)N[C@H]2CCN(C(=O)[C@H](C)N)C[C@H]2C)c2ccccc12` [Compound J-5, (3R, 4S)-N-{4-[1-(2-(S)-Amino-propionyl)-3-methyl-piperidin-4-ylsulfamoyl]-naphthalen-1-yl}-2-methyl-benzamide], which Ki is on record?
A: < 0.5 µM

Q: With `Cc1ccccc1C(=O)Nc1ccc(S(=O)(=O)N[C@H]2CCNC[C@@H]2C)c2ccccc12` [Compound J-44] as the compound, how does the Ki read?
A: < 0.5 µM

Q: With `CCOC(=O)N1CC[C@H](NS(=O)(=O)c2ccc(NC(=O)c3ccccc3C)c3ccccc23)[C@H](CO)C1` (racemic) [Compound C-81, (±)-(cis)-3—Hydroxymethyl-4-[4-(2-methyl-benzoylamino)-naphthalene-1-sulfonylamino]-piperidine-1-carboxylic acid ethyl ester] as the compound, how does the Ki read?
A: < 0.5 µM

Q: How did the Ki turn out when `CCOC(=O)N1[C@@H]2CC[C@H]1C[C@@H](NS(=O)(=O)c1ccc(NC(=O)c3ccccc3C)c3ccccc13)C2` [Compound C-10, cis-3-[4-(2-Methyl-benzoylamino)-naphthalene-1-sulfonylamino]-8-aza-bicyclo[3.2.1]octane-8-carboxylic acid ethyl ester] was run?
A: < 0.5 µM

Q: How did the Ki turn out when `CN(C)C(=O)N1CCC(NS(=O)(=O)c2ccc(C(=O)N(C)C3CCCCC3)c3ccccc23)CC1` [Compound F-28, 4-[4-(Cyclohexyl-methyl-carbamoyl)-naphthalene-1-sulfonylamino]-piperidine-1-carboxylic acid dimethylamide] was run?
A: < 0.5 µM

Q: With `O=C(Nc1ccc(S(=O)(=O)NC2CCN(Cc3ccccc3)CC2)c2ccccc12)c1ccccc1` [Compound A-25, N-[4-(1-Benzyl-piperidin-4-ylsulfamoyl)-naphthalen-1-yl]-benzamide] as the compound, how does the Ki read?
A: < 0.5 µM

Q: With `CCNC(=O)N1CCC(NS(=O)(=O)c2ccc(C(=O)NC3CCCCC3)c3ccccc23)CC1` [Compound F-8, 4-(4-Cyclohexylcarbamoyl-naphthalene-1-sulfonylamino)-piperidine-1-carboxylic acid ethylamide] as the compound, how does the Ki read?
A: < 0.5 µM

Q: `CC(=O)N1CC[C@H](NS(=O)(=O)c2ccc(NC(=O)c3ccccc3C)c3ccccc23)[C@@H](C)C1` (racemic) [Compound C-31, (±)-(trans)-N-[4-(1-Acetyl-3-methyl-piperidin-4-ylsulfamoyl)-naphthalen-1-yl]-2-methyl-benzamide] was tested. Which Ki did it give?
A: < 0.5 µM

Q: How did the Ki turn out when `O=C(NC1CCOCC1)c1ccc(S(=O)(=O)NC2CCNCC2)c2ccccc12` [Compound F-18, 4-(Piperidin-4-ylsulfamoyl)-naphthalene-1-carboxylic acid (tetrahydro-pyran-4-yl)-amide] was run?
A: < 30 µM

Q: With `CCOC(=O)N1CCC(NS(=O)(=O)c2ccc(CNC3CCN(C)CC3)c3ccccc23)CC1` [Compound G-25, 4-{4-[(1-Methyl-piperidin-4-ylamino)-methyl]-naphthalene-1-sulfonylamino}-piperidine-1-carboxylic acid ethyl ester] as the compound, how does the Ki read?
A: < 30 µM

Q: For `CN(C)C(=O)N1CCC(NS(=O)(=O)c2ccc(C(=O)NC3CCOCC3)c3ccccc23)CC1` [Compound F-21, 4-[4-(Tetrahydro-pyran-4-ylcarbamoyl)-naphthalene-1-sulfonylamino]-piperidine-1-carboxylic acid dimethylamide], which Ki is on record?
A: < 0.5 µM

Q: With `O=C(NCc1ccc(S(=O)(=O)NC2CCCCC2)c2ccccc12)c1ccco1` [Compound G-6, Furan-2-carboxylic acid (4-cyclohexylsulfamoyl-naphthalen-1-ylmethyl)-amide] as the compound, how does the Ki read?
A: < 1 µM

Q: `CCCC(=O)N1CCC(NS(=O)(=O)c2ccc(C(=O)Nc3cccc(C)c3C)c3ccccc23)CC1` [Compound F-19, 4-(1-Butyryl-piperidin-4-ylsulfamoyl)-naphthalene-1-carboxylic acid (2,3-dimethyl-phenyl)-amide] was tested. Which Ki did it give?
A: < 0.5 µM

Q: Which Ki does the source give for `CC[C@@H]1CNCC[C@@H]1NS(=O)(=O)c1ccc(NC(=O)c2ccccc2C)c2ccccc12` [Compound J-45] here?
A: < 0.5 µM

Q: Which Ki does the source give for `CCOC(=O)N1CCC(NS(=O)(=O)c2cccc3c(NC(=O)c4ccccc4C)cccc23)CC1` [Compound H-12, 4-[5-(2-Methyl-benzoylamino)-naphthalene-1-sulfonylamino]-piperidine-1-carboxylic acid ethyl ester] here?
A: < 1 µM

Q: For `Cc1ccccc1C(=O)Nc1ccc(S(=O)(=O)N[C@H]2CCN(C(=O)C(C)N)C[C@H]2C)c2cccnc12` (stereo in doubt) [Compound J-39, (3R, 4S)-N-{5-[1-(2-(R)-Amino-propionyl)-3-methyl-piperidin-4-ylsulfamoyl]-quinolin-8-yl}-2-methyl-benzamide], which Ki is on record?
A: < 0.5 µM

Q: Which Ki does the source give for `Cc1ccccc1C(=O)Nc1cccc2c(S(=O)(=O)Nc3ccc(Cl)cc3)cccc12` [Compound H-21, N-[5-(4-Chloro-phenylsulfamoyl)-naphthalen-1-yl]-2-methyl-benzamide] here?
A: < 1 µM

Q: With `CCCC(=O)N1CC[C@H](NS(=O)(=O)c2ccc(NC(=O)c3ncccc3C)c3ccccc23)[C@H](C)C1` (racemic) [Compound D-4, (±)-(cis)-3-Methyl-pyridine-2-carboxylic acid [4-(1-butyryl-3-methyl-piperidin-4-ylsulfamoyl)-naphthalen-1-yl]-amide] as the compound, how does the Ki read?
A: < 0.5 µM

Q: Which Ki does the source give for `Cc1ccccc1C(=O)Nc1ccc(S(=O)(=O)NC2[C@@H](C)CNC[C@@H]2C)c2ccccc12` (racemic) [Compound C-64, (±)-(cistrans)-N-[4-(3,5-Dimethyl-piperidin-4-ylsulfamoyl)-naphthalen-1-yl]-2-methyl-benzamide] here?
A: < 0.5 µM

Q: `O=C1c2ccccc2C(=O)N1Cc1ccc(S(=O)(=O)NC2CCCCC2)c2ccccc12` [Compound G-4, 4-(1,3-Dioxo-1,3-dihydro-isoindol-2-ylmethyl)-naphthalene-1-sulfonic acid cyclohexylamide] was tested. Which Ki did it give?
A: < 30 µM

Q: With `Cc1ccccc1C(=O)Nc1ccc(S(=O)(=O)N[C@H]2CCN(C(=O)[C@@H](C)N)C[C@H]2C)c2ccccc12` [Compound J-6, (3R, 4S)-N-{4-[1-(2-(R)-Amno-propionyl)-3-methyl-piperidin-4-ylsulfamoyl]-naphthalen-1-yl}-2-methyl-benzamide] as the compound, how does the Ki read?
A: < 0.5 µM

Q: For `COc1ccc(NS(=O)(=O)c2cccc3c(NC(=O)c4ccccc4)cccc23)cc1` [Compound H-1, N-[5-(4-Methoxy-phenylsulfamoyl)-naphthalen-1-yl]-benzamide], which Ki is on record?
A: < 0.5 µM

Q: How did the Ki turn out when `CCCC(=O)N1CCC(NS(=O)(=O)c2ccc(NC(=O)c3ccccc3Cl)c3ccccc23)CC1` [Compound C-105, N-[4-(1-Butyryl-piperidin-4-ylsulfamoyl)-naphthalen-1-yl]-2-chloro-benzamide] was run?
A: < 0.5 µM

Q: For `CCCC(=O)N1CCC(NS(=O)(=O)c2ccc(NC(=O)c3ccccc3OC)c3ccccc23)CC1` [Compound C-104, N-[4-(1-Butyryl-piperidin-4-ylsulfamoyl)-naphthalen-1-yl]-2-methoxy-benzamide], which Ki is on record?
A: < 0.5 µM

Q: For `Cc1cccc(NC(=O)c2cccc3c(S(=O)(=O)NC4CCN(C(=O)N(C)C)CC4)cccc23)c1C` [Compound H-38, 4-[5-(2,3-Dimethyl-phenylcarbamoyl)-naphthalene-1-sulfonylamino]-piperidine-1-carboxylic acid dimethylamide], which Ki is on record?
A: < 0.5 µM

Q: How did the Ki turn out when `Cc1ccccc1C(=O)Nc1ccc(S(=O)(=O)N[C@@H]2[C@H](C)CNC[C@@H]2C)c2ccccc12` [Compound J-53] was run?
A: < 5 µM

Q: For `CC[C@@H]1CN(C(=O)[C@@H]2CCCN2)CC[C@H]1NS(=O)(=O)c1ccc(NC(=O)c2ccccc2C)c2ccccc12` [Compound J-30, (3R, 4R)-N-{4-[3-Ethyl-1-(pyrrolidine-2-(S)-carbonyl)-piperidin-4-ylsulfamoyl]-naphthalen-1-yl}-2-methyl-benzamide], which Ki is on record?
A: < 0.5 µM

Q: How did the Ki turn out when `CCOC(=O)N1CCC(NS(=O)(=O)c2ccc(NC(=O)c3ccccc3)c3c2CCCC3)CC1` [Compound E-4, 4-(4-Benzoylamino-5,6,7,8-tetrahydro-naphthalene-1-sulfonylamino)-piperidine-1-carboxylic acid ethyl ester] was run?
A: < 1 µM
